Counter-ions that a name gives are not always drawn. Like-named read-outs stand apart in the source and are kept apart here.
What was measured:
[1] = molecular target: T1, cCaSR (Felis catus, UniProt C7FF08); test: cell-based
T1 sequence (C7FF08 1-1081): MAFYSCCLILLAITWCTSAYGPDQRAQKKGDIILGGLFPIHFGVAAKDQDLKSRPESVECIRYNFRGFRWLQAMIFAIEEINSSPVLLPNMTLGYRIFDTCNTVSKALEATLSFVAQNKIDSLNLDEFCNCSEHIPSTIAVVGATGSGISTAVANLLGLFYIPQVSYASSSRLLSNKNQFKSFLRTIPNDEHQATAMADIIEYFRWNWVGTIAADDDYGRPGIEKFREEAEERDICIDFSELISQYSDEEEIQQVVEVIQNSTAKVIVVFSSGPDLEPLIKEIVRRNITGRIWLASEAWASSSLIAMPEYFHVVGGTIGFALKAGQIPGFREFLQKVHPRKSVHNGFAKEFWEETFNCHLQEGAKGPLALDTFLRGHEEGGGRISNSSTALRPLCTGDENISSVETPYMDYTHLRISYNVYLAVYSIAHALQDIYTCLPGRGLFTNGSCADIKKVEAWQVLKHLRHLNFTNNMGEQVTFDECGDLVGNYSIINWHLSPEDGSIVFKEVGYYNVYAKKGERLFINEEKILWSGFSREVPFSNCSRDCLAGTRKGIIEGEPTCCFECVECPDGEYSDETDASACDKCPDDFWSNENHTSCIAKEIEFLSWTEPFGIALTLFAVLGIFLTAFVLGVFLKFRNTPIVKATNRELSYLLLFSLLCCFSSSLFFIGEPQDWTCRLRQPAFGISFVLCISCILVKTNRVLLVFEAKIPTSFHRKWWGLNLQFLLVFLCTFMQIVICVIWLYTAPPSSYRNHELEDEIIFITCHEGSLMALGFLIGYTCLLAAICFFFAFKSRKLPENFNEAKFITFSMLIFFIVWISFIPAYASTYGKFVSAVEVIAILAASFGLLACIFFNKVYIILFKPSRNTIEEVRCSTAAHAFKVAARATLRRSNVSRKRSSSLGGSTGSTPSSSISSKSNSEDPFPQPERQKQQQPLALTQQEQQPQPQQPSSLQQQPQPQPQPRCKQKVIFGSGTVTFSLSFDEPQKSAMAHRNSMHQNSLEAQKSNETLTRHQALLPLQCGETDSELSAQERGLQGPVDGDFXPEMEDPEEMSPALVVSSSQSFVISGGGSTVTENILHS

[2] = molecular target: T1, cCaSR; test: cCaSR PAM luminescence assay, double injection with 0.5 mM CaCl2, HEK293/T-REx/natClytin-cCaSR
[3] = molecular target: T1, cCaSR; conditions: for EC50 Ago (M) / EC50: agonist assay; for EC50 Ago (M): dash = no activity
[4] = cCaSR activity, agonist assay, stable inducible cCaSR line, at least three wells
[5] = Supplementary Table I, PAM assay, dash = no activity
[6] = EC50 (M), agonist assay, stable inducible cCaSR line, > 0.01 M = maximal response not reached
[7] = EC50 Ago (M), Supplementary Table I, agonist assay, > 0.01 M = maximal response not reached
[8] = read-out: cCaSR activity, stable inducible cCaSR line, at least three wells

EC50 [1, 4] | EC50 PAM (M) [2, 5] | Compound | other results
> 0.01 M | - | NC(CC(C(=O)O)C(=O)O)C(=O)O (racemic) [γ-Carboxy-DL-glutamic acid] | 
> 0.01 M | - | C[C@H](NC(=O)C[C@H](N)C(=O)O)C(=O)O [β-Asp-Ala] | 
> 0.01 M | - | N[C@@H](CC(=O)NCC(=O)O)C(=O)O [β-Asp-Gly] | 
> 0.01 M | - | CC(C)C[C@H](NC(=O)C[C@H](N)C(=O)O)C(=O)O [β-Asp-Leu] | EC50 [1, 7]: > 0.01 M
 | - | NCCCC[C@H](NC(=O)C[C@H](N)C(=O)O)C(=O)O [β-Asp-Lys] | EC50 Ago (M) ([3]; Supplementary Table I): -
> 0.01 M | - | N[C@@H](CC(=O)N[C@@H](Cc1ccccc1)C(=O)O)C(=O)O [β-Asp-Phe] | 
 | - | N[C@H](CCC(=O)N[C@@H](Cc1c[nH]c2ccccc12)C(=O)O)C(=O)O [γ-D-Glu-Trp] | EC50 [1, 6]: 0.0042 M
 | - | CCOC(=O)CNC(=O)[C@H](CS)NC(=O)CC[C@H](N)C(=O)O [γ-Glu-Cys-Gly-Oet] | EC50 Ago (M) ([3]; Supplementary Table I): -
> 0.01 M | - | N[C@@H](CCC(=O)N[C@@H](CS)C(=O)O)C(=O)O [γ-Glu-Cys] | 
> 0.01 M | - | NC(=O)CC[C@H](NC(=O)CC[C@H](N)C(=O)O)C(=O)O [γ-Glu-Gln] | 
0.001 to 0.01 M | - | N[C@@H](CCC(=O)N[C@@H](CCC(=O)O)C(=O)O)C(=O)O [γ-Glu-Glu] | EC50 [1, 6]: 0.00207 M; EC50 [1, 7]: 0.00206 M
 | - | N[C@@H](CCC(=O)NCC(=O)NCC(=O)O)C(=O)O [γ-Glu-Gly-Gly] | EC50 Ago (M) ([3]; Supplementary Table I): -
> 0.01 M | - | N[C@@H](CCC(=O)NCC(=O)O)C(=O)O [γ-Glu-Gly] | 
 | - | N[C@@H](CCC(=O)N[C@@H](Cc1cnc[nH]1)C(=O)O)C(=O)O [γ-Glu-His] | EC50 Ago (M) ([3]; Supplementary Table I): -
> 0.01 M | - | CC(C)C[C@H](NC(=O)CC[C@H](N)C(=O)O)C(=O)O [γ-Glu-Leu] | 
> 0.01 M | - | CSCC[C@H](NC(=O)CC[C@H](N)C(=O)O)C(=O)O [γ-Glu-Met] | EC50 ([1]; EC50 Value (heat map Fig. 5), cCaSR agonists, heat map): 0.00687 M
0.001 to 0.01 M | - | N[C@@H](CCC(=O)N[C@@H](Cc1ccccc1)C(=O)O)C(=O)O [γ-Glu-Phe] | EC50 [1, 6]: 0.00232 M
> 0.01 M | - | N[C@@H](CCC(=O)N[C@@H](Cc1c[nH]c2ccccc12)C(=O)O)C(=O)O [γ-Glu-Trp] | 
0.001 to 0.01 M | - | N[C@@H](CCC(=O)N[C@@H](Cc1ccc(O)cc1)C(=O)O)C(=O)O [γ-Glu-Tyr] | EC50 [1, 6]: 0.00388 M; EC50 [1, 7]: 0.00388 M

Further lines, the compound ahead of its results:

Compound | EC50 [1, 4] | EC50 PAM (M) [2, 5] | other results
CC[C@H](NC(=O)CC[C@H](N)C(=O)O)C(=O)O | > 0.01 M | - | 
NC(CC(F)C(=O)O)C(=O)O (racemic) [4-Fluoro-DL-glutamic acid] | > 0.01 M | - | 
COC(=O)C(N)CC(=O)O (racemic) [DL-Aspartic acid α-methyl ester] | > 0.01 M | - | agonist activity on cCaSR (in words) [3]: agonist activity
NC(CCP(=O)(O)O)C(=O)O (stereo not shown) [2-Amino-4-phosphonobutyric acid] | > 0.01 M | - | 
NC(CCCCC(=O)O)C(=O)O (stereo not shown) [2-Aminopimelic acid] | > 0.01 M | - | EC50 Ago (M) ([3]; Supplementary Table I): -
N[C@@H](C[C@H](O)C(=O)O)C(=O)O [2S,4S-g-Hydroxy-L-glutamic acid] | > 0.01 M | - | 
N[C@@H](CCC(=O)N[C@@H](CSCc1c[nH]c2ccccc12)C(=O)NCC(=O)O)C(=O)O [3-Glutathionyl-S-methylindole] | 0.001 to 0.01 M | - | EC50 [1, 6]: 0.00374 M; EC50 [1, 7]: 0.00375 M
CNC(C)C1CCC(N)C(OC2C(N)CC(N)C(OC3OCC(C)(O)C(NC)C3O)C2O)O1 (stereo not shown) [Gentamicin, reference compound] |  | - | EC50 [1, 6]: 0.000989 M; EC50 [1, 7]: 0.00099 M
N[C@@H](CCCC(=O)O)C(=O)O [L-2-Aminoadipic acid] | > 0.01 M | - | 
N[C@@H](CP(=O)(O)O)C(=O)O [L-( +)-2-Amino-3-phosphonopropionic acid, L-(+)-2-Amino-3-phosphonopropionic acid] |  |  | EC50 ([1]; cCaSR activity): > 0.01 M; EC50 PAM (M) [2]: -
COC(=O)C[C@H](N)C(=O)O [L-Aspartic acid β-methyl ester hydrochloride] | > 0.01 M | - | agonist activity on cCaSR (in words) [3]: agonist activity
N[C@@H](CS(=O)(=O)O)C(=O)O [L-Cysteic acid monohydrate] | 0.001 to 0.01 M | - | EC50 [1, 6]: 0.00234 M; EC50 [1, 7]: 0.00234 M; agonist activity on cCaSR (in words) [3]: agonist activity
N[C@@H](CCS(=O)(=O)O)C(=O)O [L-Homocysteic acid] | > 0.01 M | - | 
NC(=O)[C@@H](N)CCC(=O)O [L-Isoglutamine] | > 0.01 M | - | agonist activity on cCaSR (in words) [3]: agonist activity
N[C@@H](Cc1ccc(OP(=O)(O)O)cc1)C(=O)O [O-Phospho-L-tyrosine] | > 0.01 M | - | agonist activity on cCaSR (in words) [3]: agonist activity
NC[C@@H]1O[C@H](O[C@H]2[C@@H](O)[C@H](O[C@@H]3[C@@H](O)[C@H](N)C[C@H](N)[C@H]3O[C@H]3O[C@H](CO)[C@@H](O)[C@H](O)[C@H]3N)O[C@@H]2CO)[C@H](N)[C@@H](O)[C@@H]1O [Paromomycin sulfate salt, reference compound] |  | - | EC50 [1, 6]: 0.00108 M; EC50 [1, 7]: 0.00108 M
NC[C@H]1O[C@H](O[C@H]2[C@H](O[C@@H]3O[C@H](CO)[C@@H](O)[C@H]3O)[C@@H](O)[C@H](N)C[C@@H]2N)[C@H](N)[C@@H](O)[C@@H]1O [Ribostamycin sulfate salt, reference compound] | > 0.01 M | - | 
N[C@@H](CCC(=O)N[C@@H](CSCCO)C(=O)NCC(=O)O)C(=O)O [S-(2-Hydroxyethyl)glutathione] | 0.001 to 0.01 M | - | EC50 [1, 6]: 0.00211 M; EC50 [1, 7]: 0.0021 M
CSC[C@H](NC(=O)CC[C@H](N)C(=O)O)C(=O)NCC(=O)O [S-Methylglutathione] | 0.001 to 0.01 M | - | EC50 [1, 6]: 0.00442 M; EC50 [1, 7]: 0.00442 M
CN[C@@H]1[C@@H](O)[C@@H](O[C@@H]2[C@@H](O)[C@H](O[C@H]3OC(CN)=CC[C@H]3N)[C@@H](N)C[C@H]2N)OC[C@]1(C)O [Sisomicin sulfate salt, reference compound] |  | - | EC50 [1, 6]: 0.000299 M; EC50 [1, 7]: 0.0003 M
OC[C@H]1O[C@@](CO)(O[C@H]2O[C@H](CO)[C@@H](O)[C@H](O)[C@H]2O)[C@@H](O)[C@@H]1O [Sucrose] |  | - | EC50 Ago (M) ([3]; Supplementary Table I): -
NCCS(=O)(=O)O [Taurine] |  | - | EC50 Ago (M) ([3]; Supplementary Table I): -
CC(=O)[O-].CC(=O)[O-].CC(=O)[O-].O.[Tb+3] [Tb^3+, Terbium(III) acetate hydrate] |  | - | EC50 ([3]; stable inducible cCaSR line, > 0.01 M = maximal response not reached): 0.175 mM; EC50 ([3]; read-out: EC50 Ago, Supplementary Table I, > 0.01 M = maximal response not reached): 0.175 mM; EC50 [3, 8]: < 1 mM
Cc1ccc(C2(CCNC(C)c3ccc(Cl)cc3)CCOC(C)(C)C2)cc1 (stereo not shown) [Vitas M Labs Express Pick - STK530456] |  |  | EC50 ([2]; read-out: EC50 PAM, Supplementary Table I, positive allosteric modulator, presence of Ca2+): 0.0261 mM; EC50 Ago (M) ([3]; Supplementary Table I): -
N[C@@H](CCCCNC(=O)CC[C@H](N)C(=O)O)C(=O)O [γ-Glu-Lys] |  | - | EC50 Ago (M) ([3]; Supplementary Table I): -
Poly-L-histidine |  | - | EC50 Ago (M) ([3]; Supplementary Table I): -
Poly-L-lysine |  | - | EC50 [3, 8]: > 10 mM
